Data published in patent publication US6790971B1, “19-Nor-steroids” (Aventis Pharma S.A., priority 1989, dated 2004).

Key:
[1] = biological target: T1, Estrogenic Receptor of Mouse Uterus (Mus musculus, UniProt P19785); experiment: Relative affinity of the bond, estrogen receptor (tritiated estradiol displacement); assay type: binding; conditions: for affinity for the estrogen receptors: at the second time (incubation); for Relative affinity of the bond (RAB), Oestrogen, 2 H: incubation 2 H at 0° C.; for Relative affinity of the bond (RAB), Oestrogen, 2 H / Relative affinity of the bond (RAB), Oestrogen, 6 H: RAB=100(CH)/(CX); for Relative affinity of the bond (RAB), Oestrogen, 6 H: incubation 6 H (second time)
T1 construct: their uteri were removed, then homogenized at 0° C; from tissue; host or cells: uterine cytosol (105,000 g supernatant) of immature female mice
T1 sequence (P19785 1-599): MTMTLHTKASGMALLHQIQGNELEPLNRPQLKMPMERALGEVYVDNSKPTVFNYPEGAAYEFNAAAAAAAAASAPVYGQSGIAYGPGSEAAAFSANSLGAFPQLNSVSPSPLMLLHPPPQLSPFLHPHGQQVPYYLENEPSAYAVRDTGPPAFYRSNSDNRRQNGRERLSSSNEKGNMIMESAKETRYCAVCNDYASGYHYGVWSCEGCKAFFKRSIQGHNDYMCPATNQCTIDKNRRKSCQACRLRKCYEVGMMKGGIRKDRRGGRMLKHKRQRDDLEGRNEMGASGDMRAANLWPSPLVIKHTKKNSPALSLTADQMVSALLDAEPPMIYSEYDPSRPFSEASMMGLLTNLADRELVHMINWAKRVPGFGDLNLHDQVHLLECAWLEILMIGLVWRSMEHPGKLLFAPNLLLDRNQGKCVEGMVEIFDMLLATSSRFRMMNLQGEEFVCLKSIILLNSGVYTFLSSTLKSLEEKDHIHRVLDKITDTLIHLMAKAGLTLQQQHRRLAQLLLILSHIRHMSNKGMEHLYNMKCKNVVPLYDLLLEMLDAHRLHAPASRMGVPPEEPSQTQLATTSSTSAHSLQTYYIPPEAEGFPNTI
Procedure: Estrogenic Receptor of Mouse Uterus:
Impuberal female mice aged from 18 to 21 days were killed and their uteri were removed, then homogenized at 0° C. with the aid of a Potter teflon-glass in a TS buffered solution (10 mM Tris, 0.25 M saccharose, HCL pH 7.4) (1 g of tissue for 25 ml of TS). The homogenate was ultracentrifuged (105,000 g×90 min) at 0° C. and aliquots of the supernatant were incubated at 0° C. or at 25° C. for a time (t) with a constant concentration (T) of tritiated estradiol in the presence of increasing concentrations (0-1000×10^−9 M) either of cold estradiol, or of the cold product to be tested. The concentration (B) of bound tritiated estradiol was measured in each incubate by the technique of adsorption on dextran carbon.
(§1) Calculation of the Relative Affinty of the Bond
(§2) The calculation of the Relative Affinity of the Bond (RAB) was identical for all the receptors. The following 2 curves were traced; the percentage of the bound tritiated hormone [formula]
(§3) was a function of the logarithm of the concentration of the cold reference hormone and [formula]
(§4) as a function of the logarithm of the concentration of the cold product tested.
(§5) One determined the straight line of the equation [formula]
(§6) The intersections of the straight line I50 and of the curves make it possible to evaluate the concentrations of the cold reference hormone (CH) and of the tested cold product (CX) which inhibit to an extend of 50% the binding of the tritiated hormone upon the receptor. The relative affinity of the bond (RAB) of the tested product is determined by the equation

[2] = biological target: T2, Glucocorticoid Receptor of Rat Thymus (Rattus norvegicus, UniProt P06536); experiment: Relative affinity of the bond, glucocorticoid receptor (tritiated dexamethasone displacement); assay type: binding; conditions: RAB=100(CH)/(CX); for Relative affinity of the bond (RAB), Glucocoticoid, 4 H: incubation 4 H at 0° C.; for Relative affinity of the bond (RAB), Glucocoticoid, 24 H: incubation 24 H at 0° C.
T2 construct: The thymuses were removed and homogenized at 0° C; from tissue; host or cells: thymus cytosol (105,000 g supernatant) of adrenalectomised male Sprague-Dawley rats
T2 sequence (P06536 1-795): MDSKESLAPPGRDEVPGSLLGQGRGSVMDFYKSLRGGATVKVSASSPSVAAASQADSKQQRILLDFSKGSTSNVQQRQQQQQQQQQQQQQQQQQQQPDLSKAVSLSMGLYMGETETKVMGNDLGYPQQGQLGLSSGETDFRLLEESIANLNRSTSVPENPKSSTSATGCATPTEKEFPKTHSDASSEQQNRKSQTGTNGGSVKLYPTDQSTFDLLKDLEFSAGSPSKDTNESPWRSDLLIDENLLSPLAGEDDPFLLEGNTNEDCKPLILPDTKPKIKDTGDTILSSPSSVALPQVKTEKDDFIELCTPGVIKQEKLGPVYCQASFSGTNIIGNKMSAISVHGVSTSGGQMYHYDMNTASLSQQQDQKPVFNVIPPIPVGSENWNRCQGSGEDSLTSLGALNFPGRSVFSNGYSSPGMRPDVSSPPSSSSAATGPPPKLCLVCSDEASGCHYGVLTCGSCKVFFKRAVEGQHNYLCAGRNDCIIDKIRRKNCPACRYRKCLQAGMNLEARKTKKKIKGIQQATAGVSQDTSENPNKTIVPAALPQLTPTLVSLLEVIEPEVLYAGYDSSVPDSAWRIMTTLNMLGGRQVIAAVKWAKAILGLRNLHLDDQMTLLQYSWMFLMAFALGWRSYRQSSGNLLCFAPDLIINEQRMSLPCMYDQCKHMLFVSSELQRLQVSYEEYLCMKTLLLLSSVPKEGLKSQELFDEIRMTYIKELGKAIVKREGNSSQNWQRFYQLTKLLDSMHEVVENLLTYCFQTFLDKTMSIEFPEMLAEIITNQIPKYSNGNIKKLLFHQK
Procedure: Glucocorticoid Receptor of Rat Thymus:
Male Sprague Dawley EOPS rats weighing 160 to 200 g were subjected to suprarenalectomy and 4 to 8 days after this intervention, the animals were killed. The thymuses were removed and homogenized at 0° C. in a 10 mM Tris, 0.25 M saccharose, 2 mM dithiothreitol, HCL pH 7.4 buffer, with the aid of a Potter polytetrafluoroethylene-glass (1 g of tissue for 10 ml of TS). The homogenate was subsequently ultracentrifuged (105,000 g×90 min) at 0° C. and aliquots of the supernatant were incubated at 0° C. for a time (t) with a constant concentration (T) of tritiated dexamethasone in the presence of increasing concentrations (0-2,500.10^−9 M) either of cold dexamethasone, or of cold product to be tested. The concentration (B) of the bound tritiated dexamethasone was measured in each incubate by the adsorption technique on dextran carbon.
as §1, §2, §3, §4, §5, §6

Compound | affinity for the estrogen receptors [1] | Relative affinity of the bond (RAB), Oestrogen, 2 H [1] | Relative affinity of the bond (RAB), Oestrogen, 6 H [1] | Relative affinity of the bond (RAB), Glucocoticoid, 4 H [2] | Relative affinity of the bond (RAB), Glucocoticoid, 24 H [2]
CCCCN(C)C(=O)CCCCCCCCCC[C@H]1C[C@]2(C)[C@@H](O)CC[C@H]2[C@@H]2CCc3cc(O)ccc3[C@@H]12 [Example 13, N-Butyl-3,17β-Dihydroxy-N-Methyl-11β-Δ^1,3,5(10)-Estratriene-Undecanamide] | marked affinity | 0.13 | 27 | 7 | 7
CC(C)N(C)C(=O)CCCCCCCCCC[C@H]1C[C@]2(C)[C@@H](O)CC[C@H]2[C@@H]2CCc3cc(O)ccc3[C@@H]12 [Example 16, 3,17β-dihydroxy-N-methyl-N-isopropyl-11β-Δ^1,3,5(10)-estratriene undecanamide] | marked affinity | 0.6 | 60 | 12 | 11
CN(Cc1ccccc1)C(=O)CCCCCCCCCC[C@H]1C[C@]2(C)[C@@H](O)CC[C@H]2[C@@H]2CCC3=CC(=O)CCC3=C12 [Example 17, N-benzyl-17β-hydroxy-N-methyl-3-oxo-11β-Δ^4,9-estradiene undecanamide] | – | 0.1 | 0.01 | 3 | 6
CN(C)CCN(C)C(=O)CCCCCCCCCC[C@H]1C[C@]2(C)[C@@H](O)CC[C@H]2[C@@H]2CCC3=CC(=O)CCC3=C12 [Example 19, N-[2-(dimethylamino)-ethyl]-17β-hydroxy-N-methyl-3-oxo-11β-Δ^4,9-estradiene undecanamide] | – | 0.3 | 0.8 | 6 | 4.6

The remaining lines, values ahead:

affinity for the estrogen receptors [1] | Relative affinity of the bond (RAB), Oestrogen, 2 H [1] | Relative affinity of the bond (RAB), Oestrogen, 6 H [1] | Relative affinity of the bond (RAB), Glucocoticoid, 4 H [2] | Relative affinity of the bond (RAB), Glucocoticoid, 24 H [2] | Compound
– | 0.01 | 0.01 | 7 | 14 | CC#C[C@]1(O)CC[C@H]2[C@@H]3CCC4=CC(=O)CCC4=C3[C@@H](CCCCCCCCCCC(=O)NCCCC)C[C@@]21C [Example 22, N-butyl-17β-hydroxy-3-oxo-17α-(1-propynyl)-11β-Δ^4,9-estradiene undecanamide]
– | 0.02 | 13 | 2 | 3 | CCCCN(C)C(=O)CCCCCCCCCCC[C@H]1C[C@]2(C)[C@@H](O)CC[C@H]2[C@@H]2CCc3cc(O)ccc3[C@@H]12 [Example 24, N-butyl-3,17β-dihydroxy-N-methyl-11β-Δ^1,3,5(10)-estratriene dodecanamide]
– | 0.06 | 7.4 | 2 | 2.6 | N-butyl-3,17β-dihydroxy-N-methyl-19-nor-11β-Δ^1,3,5(10)-pregnatrien-20-yn undecanamide [Example 21]
